These results are taken from patent US11691949B2, “Quinoline sulfonamide compounds and their use as antibacterial agents” (OTAGO INNOVATION LIMITED, priority 2017, dated 2023).

Format in all cases: cell-based
One assay relates to E. coli ATCC 10596. Kind of assay: MIC by broth microdilution, E. coli. To be noted: Escherichia coli, read-out: E. coli ATCC 10536 MIC. In short, it runs like this: (§1)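 Overnight cultures diluted to ~5×10^5 cfu/mL final; S. aureus in TSB and CAMHB, E. coli in LB and CAMHB, zinc sulphate to 50 μM final as required; two-fold serial dilutions. MIC = lowest concentration with no growth by OD600 after 24 h, 37° C, 200 rpm. MBC by Miles-Misra drop-plate viability count.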

For the next assay, the system named is S. uberis ATCC 19436. The experiment in a line: MIC by broth microdilution, S. uberis. To be noted: Streptococcus uberis, read-out: S. uberis ATCC 19436 MIC. An outline of the steps:
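Streptococcus uberis ATCC 19436 was tested in Todd Hewitt Broth by broth microdilution in 96-well flat bottom plates, in biological triplicate. Overnight cells were diluted to OD600 of approximately 0.025, giving about 5×10^5 cfu/mL in the wells. Compounds were serially diluted two-fold to 200 μl, incubated 24 h at 37° C. and 200 rpm, and the MIC was taken from OD600.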
For orientation: Dilution methods test growth across graded concentrations, often in twofold steps.

Another assay concerns S. aureus ATCC 6538. The experiment in a line: MIC by broth microdilution, S. aureus. To be noted: Staphylococcus aureus, read-out: S. aureus ATCC 6538 MIC. In short, it runs like this: as §1
[1] abbreviates: ATCC 10536 / ATCC 10596, No Zinc.
Setting [2] is: ATCC 10536 / ATCC 10596, Zinc (50 μM).

≈ marks a conversion by molar mass, not a printed value. Where two headings read alike, the source gives them in different places. A value given as a limit tells only on which side of the number the result lay.

The MIC is the lowest concentration that inhibits growth of the organism. As for `CN(C)Cc1ccc2cccc(NS(=O)(=O)c3ccccc3OC(F)(F)F)c2n1` [ZDR191, N-(2-((Dimethylamino)methyl)quinolin-8-yl)-2-(trifluoromethoxy)benzenesulfonamide], the MIC was above 256 µg/mL in the assay with E. coli ATCC 10596 (setting [1]); above 256 µg/mL with E. coli ATCC 10596 (setting [2]); 256 µg/mL (≈ 602 µM) with S. uberis ATCC 19436 (ATCC19436, No Zinc); 0.125 µg/mL (≈ 0.294 µM) in the assay on S. uberis ATCC 19436 (ATCC19436, Zinc (50 μM)); above 256 µg/mL in the assay with S. aureus ATCC 6538 (ATCC6538, No Zinc); above 256 µg/mL in the assay on S. aureus ATCC 6538 (ATCC6538, Zinc (50 μM)).

Take `CN(C)Cc1ccc2cccc(NS(=O)(=O)N3CCOCC3)c2n1` [ZDR192, N-(2-((Dimethylamino)methyl)quinolin-8-yl)morpholine-4-sulfonamide]: the MIC in the assay with E. coli ATCC 10596 (setting [1]) is above 256 µg/mL; in the assay with E. coli ATCC 10596 (setting [2]) it was above 256 µg/mL; in the assay with S. uberis ATCC 19436 (ATCC19436, No Zinc), above 256 µg/mL; in the assay on S. uberis ATCC 19436 (ATCC19436, Zinc (50 μM)) it was 1 µg/mL (≈ 2.85 µM); with S. aureus ATCC 6538 (ATCC6538, No Zinc), above 256 µg/mL; with S. aureus ATCC 6538 (ATCC6538, Zinc (50 μM)), above 256 µg/mL.

As for `CN(C)Cc1ccc2cccc(NS(=O)(=O)N3CCCCC3)c2n1` [ZDR193, N-(2-((Dimethylamino)methyl)quinolin-8-yl)piperidine-1-sulfonamide], the MIC with E. coli ATCC 10596 (setting [1]) was above 256 µg/mL; in the assay on E. coli ATCC 10596 (setting [2]), above 256 µg/mL; with S. uberis ATCC 19436 (ATCC19436, No Zinc), 128 µg/mL (≈ 367 µM); with S. uberis ATCC 19436 (ATCC19436, Zinc (50 μM)), 0.25 µg/mL (≈ 0.717 µM); in the assay with S. aureus ATCC 6538 (ATCC6538, No Zinc), above 256 µg/mL; with S. aureus ATCC 6538 (ATCC6538, Zinc (50 μM)) it was above 256 µg/mL.

As to `CN(C)Cc1ccc2cccc(NS(=O)(=O)c3cnn(C)c3)c2n1` [ZDR194, N-(2-((Dimethylamino)methyl)quinolin-8-yl)-1-methyl-1H-pyrazole-4-sulfonamide], the MIC in the assay on E. coli ATCC 10596 (setting [1]) was above 256 µg/mL; in the assay with E. coli ATCC 10596 (setting [2]) it was above 256 µg/mL; with S. uberis ATCC 19436 (ATCC19436, No Zinc) it was above 256 µg/mL; in the assay with S. uberis ATCC 19436 (ATCC19436, Zinc (50 μM)), 4 µg/mL (≈ 11.6 µM); with S. aureus ATCC 6538 (ATCC6538, No Zinc), above 256 µg/mL; with S. aureus ATCC 6538 (ATCC6538, Zinc (50 μM)), above 256 µg/mL.

On to `CN(C)Cc1ccc2cccc(NS(=O)(=O)c3cn(C)cn3)c2n1` [ZDR195, N-(2-((Dimethylamino)methyl)quinolin-8-yl)-1-methyl-1H-imidazole-4-sulfonamide], for which the MIC in the assay with E. coli ATCC 10596 (setting [1]) is above 256 µg/mL; in the assay with E. coli ATCC 10596 (setting [2]) it was above 256 µg/mL; in the assay with S. uberis ATCC 19436 (ATCC19436, No Zinc) it was above 256 µg/mL; in the assay on S. uberis ATCC 19436 (ATCC19436, Zinc (50 μM)) it was 32 µg/mL (≈ 92.6 µM); with S. aureus ATCC 6538 (ATCC6538, No Zinc) it was above 256 µg/mL; in the assay on S. aureus ATCC 6538 (ATCC6538, Zinc (50 μM)), above 256 µg/mL.

As for `CN(C)Cc1ccc2cccc(NS(=O)(=O)c3cccc4nsnc34)c2n1` [ZDR196, N-(2-((Dimethylamino)methyl)quinolin-8-yl)benzo[c][1,2,5]thiadiazole-4-sulfonamide], the minimum inhibitory concentration (MIC) in the assay on E. coli ATCC 10596 (setting [1]) was above 256 µg/mL; in the assay with E. coli ATCC 10596 (setting [2]) it was above 256 µg/mL; with S. uberis ATCC 19436 (ATCC19436, No Zinc), 256 µg/mL (≈ 641 µM); with S. uberis ATCC 19436 (ATCC19436, Zinc (50 μM)), 0.0625 µg/mL (≈ 0.156 µM); in the assay on S. aureus ATCC 6538 (ATCC6538, No Zinc) it was above 256 µg/mL; with S. aureus ATCC 6538 (ATCC6538, Zinc (50 μM)), 32 µg/mL (≈ 80.1 µM).

On to `CN(C)Cc1ccc2cccc(NS(=O)(=O)c3ccccc3F)c2n1` [ZDR201, N-(2-((Dimethylamino)methyl)quinolin-8-yl)-2-fluorobenzenesulfonamide], for which the MIC was above 256 µg/mL with E. coli ATCC 10596 (setting [1]); above 256 µg/mL in the assay with E. coli ATCC 10596 (setting [2]); 128 µg/mL (≈ 356 µM) in the assay with S. uberis ATCC 19436 (ATCC19436, No Zinc); 0.0625 µg/mL (≈ 0.174 µM) with S. uberis ATCC 19436 (ATCC19436, Zinc (50 μM)); above 256 µg/mL with S. aureus ATCC 6538 (ATCC6538, No Zinc); 32 µg/mL (≈ 89 µM) in the assay on S. aureus ATCC 6538 (ATCC6538, Zinc (50 μM)).

As for `CN(C)Cc1ccc2cccc(NS(=O)(=O)c3ccccc3Br)c2n1` [ZDR202, 2-Bromo-N-(2-((dimethylamino)methyl)quinolin-8-yl)benzenesulfonamide], the MIC in the assay on E. coli ATCC 10596 (setting [1]) was above 256 µg/mL; in the assay with E. coli ATCC 10596 (setting [2]), above 256 µg/mL; in the assay with S. uberis ATCC 19436 (ATCC19436, No Zinc), 256 µg/mL (≈ 609 µM); with S. uberis ATCC 19436 (ATCC19436, Zinc (50 μM)) it was 0.125 µg/mL (≈ 0.297 µM); in the assay with S. aureus ATCC 6538 (ATCC6538, No Zinc) it was 256 µg/mL (≈ 609 µM); in the assay with S. aureus ATCC 6538 (ATCC6538, Zinc (50 μM)) it was above 256 µg/mL.

On to `Cc1nc(C)c(S(=O)(=O)Nc2cccc3ccc(CN(C)C)nc23)s1` [ZDR203, N-(2-((Dimethylamino)methyl)quinolin-8-yl)-2,4-dimethylthiazole-5-sulfonamide], for which the MIC in the assay on E. coli ATCC 10596 (setting [1]) was above 256 µg/mL; in the assay with E. coli ATCC 10596 (setting [2]), above 256 µg/mL; in the assay on S. uberis ATCC 19436 (ATCC19436, No Zinc), 256 µg/mL (≈ 680 µM); in the assay with S. uberis ATCC 19436 (ATCC19436, Zinc (50 μM)), 0.5 µg/mL (≈ 1.33 µM); with S. aureus ATCC 6538 (ATCC6538, No Zinc), above 256 µg/mL; in the assay with S. aureus ATCC 6538 (ATCC6538, Zinc (50 μM)), 64 µg/mL (≈ 170 µM).

Regarding `CN(C)Cc1ccc2cccc(NS(=O)(=O)N3CCCC3)c2n1` [ZDR204, N-(2-((Dimethylamino)methyl)quinolin-8-yl)pyrrolidine-1-sulfonamide], the MIC is above 256 µg/mL in the assay with E. coli ATCC 10596 (setting [1]); above 256 µg/mL with E. coli ATCC 10596 (setting [2]); 256 µg/mL (≈ 765 µM) in the assay with S. uberis ATCC 19436 (ATCC19436, No Zinc); 0.5 µg/mL (≈ 1.5 µM) in the assay with S. uberis ATCC 19436 (ATCC19436, Zinc (50 μM)); above 256 µg/mL in the assay with S. aureus ATCC 6538 (ATCC6538, No Zinc); 256 µg/mL (≈ 765 µM) in the assay with S. aureus ATCC 6538 (ATCC6538, Zinc (50 μM)).

As for `CN(C)CC(=O)NCc1ccc2cccc(NS(=O)(=O)c3ccc(C(F)(F)F)cc3)c2n1` [ZDR205, 2-(Dimethylamino)-N-((8-((4-(trifluoromethyl)phenyl)sulfonamido)quinolin-2-yl)methyl)acetamide], the MIC in the assay with E. coli ATCC 10596 (setting [1]) is above 256 µg/mL; in the assay with E. coli ATCC 10596 (setting [2]), above 256 µg/mL; in the assay on S. uberis ATCC 19436 (ATCC19436, No Zinc) it was 256 µg/mL (≈ 549 µM); in the assay on S. uberis ATCC 19436 (ATCC19436, Zinc (50 μM)) it was 0.125 µg/mL (≈ 0.268 µM); with S. aureus ATCC 6538 (ATCC6538, No Zinc), 128 µg/mL (≈ 274 µM); in the assay with S. aureus ATCC 6538 (ATCC6538, Zinc (50 μM)), 64 µg/mL (≈ 137 µM).
